US10640488B2, “Antibacterial compounds” (AZIENDE CHIMICHE RIUNITE ANGELINI FRANCESCO A.C.R.A.F. …, priority 2016, dated 2020)

How the values were obtained:
E. coli DNA gyrase = E. coli DNA gyrase (Escherichia coli, UniProt P0AES4+P0AES6); assay type: biochemical
S. aureus DNA gyrase = S. aureus DNA gyrase (Staphylococcus aureus, UniProt P0A0K8+P20831); assay type: biochemical
Sequence of S. aureus DNA gyrase (P20831 whole entry): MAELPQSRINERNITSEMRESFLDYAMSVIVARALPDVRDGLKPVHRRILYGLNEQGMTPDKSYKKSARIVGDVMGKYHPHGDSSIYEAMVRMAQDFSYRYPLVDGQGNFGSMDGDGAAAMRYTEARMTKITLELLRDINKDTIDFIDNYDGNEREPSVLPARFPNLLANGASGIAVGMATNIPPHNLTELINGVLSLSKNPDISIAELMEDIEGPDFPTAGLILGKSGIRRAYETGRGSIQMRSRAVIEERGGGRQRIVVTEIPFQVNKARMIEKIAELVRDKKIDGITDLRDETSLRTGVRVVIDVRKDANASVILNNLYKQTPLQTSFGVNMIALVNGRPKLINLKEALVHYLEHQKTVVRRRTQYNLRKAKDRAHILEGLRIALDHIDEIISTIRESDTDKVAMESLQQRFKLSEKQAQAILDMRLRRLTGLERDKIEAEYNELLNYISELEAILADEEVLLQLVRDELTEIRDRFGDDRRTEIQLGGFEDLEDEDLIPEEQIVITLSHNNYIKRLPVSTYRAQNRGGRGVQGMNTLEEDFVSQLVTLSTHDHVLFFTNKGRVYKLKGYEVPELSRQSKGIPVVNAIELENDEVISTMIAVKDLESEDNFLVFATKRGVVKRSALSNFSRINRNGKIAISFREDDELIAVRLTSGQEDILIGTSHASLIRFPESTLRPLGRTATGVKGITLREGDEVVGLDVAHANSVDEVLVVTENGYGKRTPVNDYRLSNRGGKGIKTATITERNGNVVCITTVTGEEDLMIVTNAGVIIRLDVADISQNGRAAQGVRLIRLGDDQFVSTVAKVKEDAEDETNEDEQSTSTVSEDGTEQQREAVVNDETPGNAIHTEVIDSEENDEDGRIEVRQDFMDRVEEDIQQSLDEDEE
Sequence of S. aureus DNA gyrase (P0A0K8 whole entry): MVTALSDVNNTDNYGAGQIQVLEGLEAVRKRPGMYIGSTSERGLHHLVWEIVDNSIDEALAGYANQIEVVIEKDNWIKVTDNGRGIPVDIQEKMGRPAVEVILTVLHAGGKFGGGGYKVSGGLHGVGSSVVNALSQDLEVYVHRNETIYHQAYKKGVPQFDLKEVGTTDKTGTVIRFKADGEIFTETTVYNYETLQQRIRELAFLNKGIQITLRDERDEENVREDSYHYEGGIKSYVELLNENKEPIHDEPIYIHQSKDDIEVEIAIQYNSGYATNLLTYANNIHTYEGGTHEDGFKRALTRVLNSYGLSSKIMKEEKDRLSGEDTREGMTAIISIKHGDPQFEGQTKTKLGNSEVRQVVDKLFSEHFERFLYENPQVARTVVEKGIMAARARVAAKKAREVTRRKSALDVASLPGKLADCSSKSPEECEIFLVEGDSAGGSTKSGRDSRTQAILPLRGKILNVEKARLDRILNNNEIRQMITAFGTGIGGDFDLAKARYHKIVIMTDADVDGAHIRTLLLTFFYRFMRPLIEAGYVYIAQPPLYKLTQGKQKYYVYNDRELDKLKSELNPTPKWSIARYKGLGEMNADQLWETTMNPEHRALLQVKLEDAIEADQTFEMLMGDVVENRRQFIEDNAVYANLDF

Sequence of E. coli DNA gyrase (P0AES4 whole entry, one chain of several): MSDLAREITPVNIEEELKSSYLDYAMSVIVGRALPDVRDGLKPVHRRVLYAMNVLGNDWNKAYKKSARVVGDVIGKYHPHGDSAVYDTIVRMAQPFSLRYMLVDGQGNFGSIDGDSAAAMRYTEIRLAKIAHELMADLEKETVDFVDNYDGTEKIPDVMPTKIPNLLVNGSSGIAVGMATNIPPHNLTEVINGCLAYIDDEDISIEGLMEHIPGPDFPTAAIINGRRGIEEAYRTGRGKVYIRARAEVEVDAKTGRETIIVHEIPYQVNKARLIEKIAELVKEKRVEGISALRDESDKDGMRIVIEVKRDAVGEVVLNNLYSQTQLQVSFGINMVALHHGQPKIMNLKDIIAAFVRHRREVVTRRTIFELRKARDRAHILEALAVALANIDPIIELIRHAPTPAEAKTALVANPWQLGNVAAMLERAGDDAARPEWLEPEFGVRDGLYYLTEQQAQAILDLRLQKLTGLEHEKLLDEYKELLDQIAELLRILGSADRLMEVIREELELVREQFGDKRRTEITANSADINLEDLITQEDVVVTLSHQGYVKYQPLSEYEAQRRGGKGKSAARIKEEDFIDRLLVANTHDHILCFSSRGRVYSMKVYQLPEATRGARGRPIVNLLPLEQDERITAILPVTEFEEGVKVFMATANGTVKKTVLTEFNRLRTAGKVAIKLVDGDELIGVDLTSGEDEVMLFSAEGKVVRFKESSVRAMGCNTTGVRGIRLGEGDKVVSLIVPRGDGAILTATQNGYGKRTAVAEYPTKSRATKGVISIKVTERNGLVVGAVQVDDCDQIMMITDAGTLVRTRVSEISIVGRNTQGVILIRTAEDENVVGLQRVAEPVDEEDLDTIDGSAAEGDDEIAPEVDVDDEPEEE

Compound | E. coli % inhibition DNA gyrase (E. coli DNA gyrase) [%] | S. aureus % inhibition DNA gyrase (S. aureus DNA gyrase) [%]
O=c1oc2ccccc2c2[nH]c(CNCC3CCN(c4nccc5ccc(F)cc45)C3)cc12 (single isomer, unassigned) [Compound 180, 2-[({[1-(7-fluoroisoquinolin-1-yl)pyrrolidin-3-yl]methyl}amino)methyl][1]benzopyrano[4,3-b]pyrrol-4(1H)-one] | 58 | 90
O=c1oc2ccccc2c2[nH]c(CNCC3CN(c4nccc5ccc(F)cc45)CCO3)cc12 (single isomer, unassigned) [Compound 182, 2-[({[4-(7-fluoroisoquinolin-1-yl)morpholin-2-yl]methyl}amino)methyl][1]benzopyrano[4,3-b]pyrrol-4(1H)-one] | 61 | 92
